For 8 compounds, GI50 and TGI results are on record in PubChem BioAssay (NCI).

As usually defined, the GI50 is the concentration that inhibits growth by half. For orientation: TGI means the concentration at which net growth stops. A high value points to lower sensitivity of the cells.

Where “and” joins values, the source holds several entries; their conditions need not be identical. Equal values may be shown once.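 Dose response: 5 concentrations. Exposure: 48 h. Format: 96-well plates. Endpoint: linear interpolation; highest concentration if not reached. At the GI50, growth is halved. TGI is the concentration that stops growth completely.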

Test systems include KM12 colon; ACHN renal; OVCAR-3 ovarian; SF-295 CNS; NCI-H23 lung; SW-620 colon; SN12C renal; UACC-62 melanoma; HS 578T breast; PC-3 prostate.
What all share (assay): DTP human tumour cell line panel, 48 h

On to `Cc1cccc2nc3cccc(C(=O)NCCNCCNCCNC(=O)c4cccc5nc6cccc(C)c6nc45)c3nc12`, for which the GI50 in the assay with KM12 colon was less than 0.01 µM; with ACHN renal, less than 0.01 µM; with OVCAR-3 ovarian it was less than 0.01 µM; in the assay with SF-295 CNS, less than 0.01 µM; with NCI-H23 lung it was less than 0.012 µM; with SW-620 colon, less than 0.01 µM. Besides, the GI50 in the assay on SN12C renal is 0.0489 µM; in the assay with UACC-62 melanoma, 0.0137 µM; with HS 578T breast, 0.0474 µM; with PC-3 prostate, less than 0.0164 µM. Besides, the concentration for total growth inhibition (TGI) in the assay on KM12 colon was 3.42 µM; with ACHN renal, 10.9 µM; in the assay on OVCAR-3 ovarian it was 2.91 µM; with SF-295 CNS, 1.11 µM; in the assay on NCI-H23 lung, 0.938 µM; in the assay with SW-620 colon it was 3.5 µM. Also, the total growth inhibition concentration (TGI) in the assay with SN12C renal turned out to be 14.1 µM; in the assay with UACC-62 melanoma, 2.01 µM; with HS 578T breast, 2.24 µM; in the assay with PC-3 prostate, 4.63 µM.

On to `COc1ccc2c(Cc3c4ccccc4cc4ccccc34)cncc2c1O`, for which the TGI in the assay on KM12 colon is 8.69 µM; in the assay with ACHN renal, 27.3 µM; in the assay on OVCAR-3 ovarian, 8.97 µM; with SF-295 CNS, 8.35 µM; with NCI-H23 lung, 85.3 µM; in the assay with SW-620 colon it was more than 100 µM. Besides, the TGI is more than 63.9 µM in the assay with SN12C renal, more than 44.2 µM in the assay on UACC-62 melanoma, more than 100 µM in the assay on HS 578T breast and more than 59.9 µM in the assay on PC-3 prostate.

With `CN1CC[C@]2(c3cccc(O)c3)CC(=O)/C(=C/c3ccccc3)[C@H]1C2`, the concentration for total growth inhibition (TGI) with KM12 colon was determined as 13.9 µM; with ACHN renal it was 7.03 µM; with OVCAR-3 ovarian it was 6.95 µM; with SF-295 CNS, 17 µM; in the assay on NCI-H23 lung, 10.8 µM; in the assay with SW-620 colon, 11.9 µM. Moreover, the TGI in the assay on SN12C renal worked out at 11.4 µM; in the assay on UACC-62 melanoma, 12.7 µM; in the assay with HS 578T breast, 12.1 µM; with PC-3 prostate, 12.9 µM. For the same compound, the GI50 is 2.64 µM with OVCAR-3 ovarian; 4.5 µM in the assay with SF-295 CNS; 2.87 µM with NCI-H23 lung; 3.06 µM in the assay with UACC-62 melanoma; 3.22 µM with PC-3 prostate.

`COc1cc(/C=C2\Oc3cc(OCCCN4CCCC4)ccc3C2=O)cc(OC)c1`: the GI50 is 4.82 µM with KM12 colon; 3.13 µM with ACHN renal; 2.74 µM in the assay with OVCAR-3 ovarian; 2.88 µM in the assay with SF-295 CNS; 4.75 µM in the assay with NCI-H23 lung; 3.15 µM in the assay with SW-620 colon. The GI50 in the assay with SN12C renal was 10.3 µM; in the assay on UACC-62 melanoma it was 2.78 µM; in the assay on HS 578T breast, 5.15 µM; with PC-3 prostate it was 4.52 µM. For the same compound, the TGI with KM12 colon came out at 17.7 µM; with ACHN renal, 10.7 µM; with OVCAR-3 ovarian it was 8.17 µM; in the assay with SF-295 CNS, 10.6 µM; in the assay on NCI-H23 lung it was 18.7 µM; with SW-620 colon it was 12.4 µM. In addition, the concentration for total growth inhibition (TGI) in the assay with SN12C renal is 22 µM; with UACC-62 melanoma, 11.7 µM; in the assay with HS 578T breast, 25.6 µM; with PC-3 prostate, 18.1 µM.

For the compound `CSc1ccc2c(c1)N(CCC1CCCCN1C)c1ccccc1S2` (stereo not given), the GI50 in the assay on KM12 colon was 6.3 µM and 4.16 µM; in the assay on ACHN renal, 4.39 µM and 3.75 µM; in the assay with OVCAR-3 ovarian, 10.7 µM and 4.28 µM; with SF-295 CNS it was 8.64 µM and 2.86 µM; in the assay on NCI-H23 lung, 10.3 µM and 8.49 µM; in the assay on SW-620 colon it was 10.8 µM and 2.52 µM. In addition, the GI50 in the assay with SN12C renal was 4.81 µM and 6.05 µM; in the assay on UACC-62 melanoma, 3.16 µM and 3.05 µM; with HS 578T breast, 6.89 µM and 3.01 µM; with PC-3 prostate it was 4.27 µM and 3.63 µM. Also, the concentration for total growth inhibition (TGI) in the assay on KM12 colon is 18.8 µM and 16.1 µM; in the assay with ACHN renal it was 15.2 µM and 13.5 µM; in the assay on OVCAR-3 ovarian, 23.7 µM and 21.7 µM; with SF-295 CNS, 22.6 µM and 8.7 µM; in the assay with NCI-H23 lung, 24 µM and 22.7 µM; with SW-620 colon, 24.6 µM and 7.23 µM. The TGI in the assay with SN12C renal was 18.8 µM and 19.3 µM; in the assay on UACC-62 melanoma it was 13.6 µM and 7.13 µM; with HS 578T breast, 28.1 µM and 13.2 µM; in the assay with PC-3 prostate, 16.6 µM and 13.8 µM.

As to `C[C@]12CC[C@H]3[C@@H](CCC4=CC(=O)CC[C@@]43C)[C@@H]1CC[C@@H]2C(=O)COS(=O)(=O)c1ccc(Br)cc1`, the TGI in the assay with KM12 colon is 44.8 µM; in the assay on ACHN renal, 27.6 µM; in the assay with OVCAR-3 ovarian, 28 µM; with SF-295 CNS, 47.3 µM; in the assay on NCI-H23 lung, 8.62 µM; in the assay with SW-620 colon, more than 44.5 µM. Besides, the concentration for total growth inhibition (TGI) in the assay on SN12C renal stood at 34.3 µM; in the assay on UACC-62 melanoma, 37.8 µM; with HS 578T breast it was 73.6 µM; in the assay with PC-3 prostate, 23 µM.

For the compound `O=C(c1ccco1)c1c(C(F)(F)F)nc2ccc(C(F)(F)F)cc2[n+]1[O-]`, the GI50 was 68 µM in the assay on KM12 colon; 23.4 µM with ACHN renal; 28 µM with OVCAR-3 ovarian; 33.2 µM in the assay with SF-295 CNS; more than 80.4 µM in the assay on NCI-H23 lung; more than 59.1 µM in the assay with SW-620 colon. Moreover, the GI50 in the assay with SN12C renal is 43.4 µM; with UACC-62 melanoma, 44.2 µM; in the assay on HS 578T breast it was 21.2 µM; with PC-3 prostate it was 41.9 µM. In addition, the TGI with KM12 colon was more than 100 µM; in the assay with ACHN renal it was 60 µM; with OVCAR-3 ovarian it was more than 75.1 µM; in the assay with SF-295 CNS it was more than 100 µM; with NCI-H23 lung, more than 100 µM; in the assay with SW-620 colon, more than 100 µM. The TGI is more than 100 µM in the assay with SN12C renal, more than 100 µM in the assay on UACC-62 melanoma, 54.5 µM in the assay on HS 578T breast and more than 100 µM with PC-3 prostate.

As to `O=C1CCCCC=C1C[N+](=O)[O-]`, the GI50 with KM12 colon was 45.1 µM; in the assay with ACHN renal, 15.6 µM; with OVCAR-3 ovarian, 23.9 µM; in the assay with SF-295 CNS it was 46.4 µM; in the assay with NCI-H23 lung it was 27.5 µM; with SW-620 colon, 5.9 µM. In addition, the GI50 in the assay with SN12C renal was 31.6 µM; in the assay on UACC-62 melanoma, 18.7 µM; in the assay on HS 578T breast, 41.8 µM; in the assay on PC-3 prostate, 41.1 µM. In addition, the total growth inhibition concentration (TGI) with KM12 colon is more than 100 µM; in the assay on ACHN renal it was 31.2 µM; in the assay with OVCAR-3 ovarian, 69.1 µM; in the assay with SF-295 CNS, more than 100 µM; with NCI-H23 lung it was 69.9 µM; with SW-620 colon, 26.1 µM. In addition, the TGI in the assay with SN12C renal was more than 100 µM; with UACC-62 melanoma, 34.6 µM; in the assay on HS 578T breast it was more than 100 µM; in the assay with PC-3 prostate, more than 100 µM.
